Consider five molecules from patent US10844118B2, “Treatment of inflammatory skin disease” (CHILDREN'S MEDICAL CENTER CORPORATION, priority 2013, dated 2020).

Experiment [1] has as its system CD1a-transgenic mice. Briefly: DNFB hapten sensitization and challenge in CD1a-transgenic mice. The class given is in vivo. The text has this: Finally, we wanted to examine whether CD1a-transgenic mice are generally prone to increased inflammatory responses. To this end, we treated mice with the well-established hapten DNFB (dinitrofluorobenzene). FIG. 7A depicts the skin sensitization and challenge schedule used for DNFB and urushiol application. […] It is well known that haptens like DNFB induce a prominent IFN-γ response, as we observed in WT mice (FIG. 7D). […] By contrast, the classical delayed type hypersensitivity (DTH) response to DNFB was rather decreased in the presence of CD1a. This underlines the specific nature of CD1a function in urushiol-induced contact dermatitis and psoriasis.

In experiment [2] the target is T1, CD1a (Homo sapiens, UniProt P06126). Briefly: MC903-induced atopic dermatitis model in CD1a-transgenic mice. The following applies: MC903 daily on ears, CD1a-transgenic mice compared to WT B6 controls. The class given is in vivo. Details: expressed in transfected cells; host or cells: CD1a-transgenic mice (compared with wild-type B6 mice). The text has this: Atopic dermatitis is an inflammatory skin disease characterized by itchy and relapsing eczematous skin lesions. It affects approximately 30% of children and 10% of adults, costing up to $3.8 billion annually in the United States. The cause of atopic dermatitis remains unclear, and there is no cure available. Recently, it has been reported that IL-22-producing CD4 T cells are associated with initiation and progression of atopic dermatitis. Therefore, it is worthwhile to test whether anti-CD1a therapy can be extended to atopic dermatitis. For this purpose, we set up a mouse model of atopic dermatitis applying MC903 (calcipotriol, Vitamin D analogue) daily on the ears of experimental mice, which triggers atopic dermatitis-like skin inflammation characterized by red, scaly, and eczematous lesions. […] Furthermore, anti-CD1a Ab injection suppressed ear swelling and granulocyte infiltration in CD1a-transgenic mice.
The inventors tested the contribution of CD1a presence in MC903-induced atopic dermatitis. The vitamin D3 analogue MC903 was used to induce AD-like symptoms in wild-type (WT-B6) mice, CD1a transgenic mice, and CD1a transgenic mice that were treated with an anti-CD1a Ab. For CD1a blocking, 200 μg of anti-CD1a Ab was intraperitoneally injected into CD1a-transgenic mice every other day (−1, +1, +3, +5, and +7 days before and after MC903 treatment).
Target sequence in this assay (P06126 17-327): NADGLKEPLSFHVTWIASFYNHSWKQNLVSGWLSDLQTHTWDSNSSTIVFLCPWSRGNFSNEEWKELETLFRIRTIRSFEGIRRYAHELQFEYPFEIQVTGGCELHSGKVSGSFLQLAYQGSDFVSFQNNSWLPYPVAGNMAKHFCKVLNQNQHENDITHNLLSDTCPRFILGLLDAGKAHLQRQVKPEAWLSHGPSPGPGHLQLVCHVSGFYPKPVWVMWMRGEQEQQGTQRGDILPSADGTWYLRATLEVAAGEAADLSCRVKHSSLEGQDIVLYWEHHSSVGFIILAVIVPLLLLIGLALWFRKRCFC
Target sequence in this assay (P01887 21-119 partner): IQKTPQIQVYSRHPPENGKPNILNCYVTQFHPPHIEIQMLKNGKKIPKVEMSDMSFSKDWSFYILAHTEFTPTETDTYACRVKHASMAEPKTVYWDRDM

The target of experiment [3] is T1, CD1a. Briefly: imiquimod (IMQ) psoriasis model in CD1a-transgenic mice. More on the design: expressed in transfected cells; host or cells: CD1a-transgenic mice (compared with wild-type B6 mice). The experiment is classed as in vivo, mouse. The text has this: Therefore, we subsequently investigated whether CD1a also plays an important role in psoriasis. For this purpose, we used a well-established model applying the small molecule imiquimod (IMQ) to the skin of mice, which induces psoriasis-like pathology after 3-6 days of daily administration. Strikingly, CD1a-transgenic mice responded with extensive ear swelling when compared to WT controls (FIG. 5A).
In order to test whether anti-CD1a therapy is able to abrogate skin inflammation in psoriasis, we performed IMQ treatment of mice and administered anti-CD1a antibody in parallel as described above. […] Of note, anti-CD1a therapy blocked the infiltration of IL-17 producing CD4 T cells.
Target sequence in this assay (P06126 17-327): as the sequence (P06126 17-327) above
Target sequence in this assay (P01887 21-119 partner): as the sequence (P01887 21-119 partner) above

Experiment [4] addresses T1, CD1a. Briefly: OCTET Bio-Layer Interferometry CD1a-lipid ligand binding assay. The following applies: recombinant CD1a coupled to a biosensor, incubated with lipid ligand. The text has this: In order to develop a small molecule inhibitor against CD1a, a CD1a binding assay as a platform can be used to test potential inhibitors from a chemical compound library. For this purpose, we have already established a read-out using the OCTET machine (from FORTEBIO) to measure the molecular interaction between CD1a and lipid ligands with high sensitivity. […] However, the great advantage of the OCTET is its straightforward assay set-up, and that it is amenable to high throughput screening using a 384-well plate format. Accordingly, we use recombinant CD1a molecules coupled to a biosensor, prior to incubation with the known lipid ligand sulfatide. […] In a next step, use pools of small organic molecules derived from a chemical compound library are tested by adding them to the CD1a-sulfatide binding assay. Subsequently, one can measure whether a small molecule candidate is able to inhibit the interaction between CD1a and its ligand.
Target sequence in this assay (P06126 17-300 limits assumed): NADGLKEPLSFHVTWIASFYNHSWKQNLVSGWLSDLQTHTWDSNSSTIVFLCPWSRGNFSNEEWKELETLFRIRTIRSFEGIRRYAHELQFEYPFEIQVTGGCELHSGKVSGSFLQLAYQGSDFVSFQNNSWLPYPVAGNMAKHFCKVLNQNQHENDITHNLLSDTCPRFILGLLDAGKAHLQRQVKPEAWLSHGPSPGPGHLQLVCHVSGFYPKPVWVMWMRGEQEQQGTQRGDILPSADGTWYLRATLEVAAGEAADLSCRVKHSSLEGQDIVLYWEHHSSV
Target sequence in this assay (P61769 21-119 partner): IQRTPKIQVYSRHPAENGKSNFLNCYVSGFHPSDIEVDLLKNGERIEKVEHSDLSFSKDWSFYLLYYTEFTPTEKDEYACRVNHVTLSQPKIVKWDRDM

The target in experiment [5] is T1, CD1a. Briefly: plate-bound binding assay, purified urushiol and recombinant CD1a. The conditions noted are these: plate coated with lipid, biotinylated CD1a, streptavidin-peroxidase; compared to positive control sulfatide. The text has this:
Central to our invention is the discovery that CD1a expressed on Langerhans cells is able to mediate skin inflammation through the induction of CD1a-restricted T cells. Accordingly, T cells stimulated by CD1a produce inflammatory cytokines such as interferon (IFN) gamma and IL-17 that facilitate the development of inflammatory skin disease (FIG. 1A). The CD1a-mediated mechanism holds true for diverse skin diseases, including poison ivy contact dermatitis as well as psoriasis. […] For this purpose, we performed a plate-bound binding assay, using purified urushiol and recombinant CD1a. After coating the microtiter plates with urushiol or the known CD1a ligand sulfatide as positive control, plates were washed and subsequently incubated with biotinylated CD1a. Following incubation with streptavidin-peroxidase and the respective chromogenic enzyme substrate, optical density was measured indicating binding efficiency. […] Thus, urushiol from poison ivy is a ligand for CD1a.
Target sequence in this assay (P06126 17-300 limits assumed): as the sequence (P06126 17-300 limits assumed) above
Target sequence in this assay (P61769 21-119 partner): as the sequence (P61769 21-119 partner) above

Experiment [6] concerns the target T1, CD1a. Kind of experiment: urushiol-induced contact dermatitis (poison ivy) in CD1a-transgenic mice. The experiment is classed as in vivo, mouse. Details: expressed in transfected cells; host or cells: CD1a-transgenic mice (compared with wild-type B6 mice). The text has this:
Next, we wanted to explore the function of CD1a in the in vivo response to urushiol. However, CD1a is mainly expressed in humans, and absent in experimental mice. Therefore, in vivo studies investigating CD1a function were not possible in the past. Therefore, we used mice transgenic for human CD1a to overcome that obstacle. FIG. 2A depicts the experimental set-up to investigate the skin immune response to poison ivy. Accordingly, CD1a-transgenic mice compared to wild-type (WT) mice were sensitized with urushiol on the abdomen following the epicutaneous route. Five days later, mice were challenged on the ear skin, prior to harvesting of inflamed ears and draining lymph nodes 48 h after challenge. […] Subsequently, we isolated the inflammatory cells from the ears, using in vitro enzyme digestion of ear tissues, prior to staining for neutrophils and T lymphocyte subsets.
In parallel, we also determined the cytokine profile of the T cells infiltrating the inflamed skin. Accordingly, we performed intracellular cytokine staining for IFN-γ, IL-17, and IL-22, prior to analysis by flow cytometry. […] IL-17 is known to mediate the recruitment of neutrophils, and IL-22 acts on epithelial cells to trigger their hyperproliferation, both cardinal features of skin inflammation.
Based on our findings that CD1a promotes skin inflammation, we next aimed at developing a therapeutic strategy to target CD1a in order to abrogate skin disease. To this end, we used an experimental blocking antibody to CD1a for intraperitoneal injection of mice. The treatment schedule included five injections of 100 μg anti-CD1a starting one day prior to sensitization with urushiol and followed by injections every other day until challenge and tissue harvest. […] To control for the efficiency of antibody treatment, we stained ear cells for CD1a, the crucial surface marker of Langerhans cells. […] Moreover, we investigated the impact of anti-CD1a treatment on the abundance of IL-17-producing CD4 T cells (also called Th17 cells). […] Taken together, we provide the proof of principle that anti-CD1a therapy abrogates skin inflammation.
Target sequence in this assay (P06126 17-327): as the sequence (P06126 17-327) above
Target sequence in this assay (P01887 21-119 partner): as the sequence (P01887 21-119 partner) above

Setting [7] is: intracellular cytokine staining, flow cytometry.

Entries after “also recorded” stand apart in the source; their conditions may differ.

For the molecule `O=[N+]([O-])c1ccc(F)c([N+](=O)[O-])c1` [DNFB, 2,4,-dinitro-1-fluorobenzene], the “T cell-derived IFN-γ” value in experiment [1] (CD1a-transgenic animals, response biased towards IL-17) was “significantly reduced”. Also, in experiment [1] (CD1a-transgenic mice), the “abundance of inflammatory granulocytes, flow cytometry” value is listed as “strikingly reduced”. Moreover, in experiment [1] (CD1a-transgenic mice, in contrast to poison ivy challenge), the “ear swelling (inflammation)” value was “reduction”. Besides, in experiment [1] (WT mice), the IFN-γ response entry is reported as “prominent”.
In the case of `C=C1/C(=C\C=C2/CCC[C@]3(C)[C@@H]([C@H](C)/C=C/[C@@H](O)C4CC4)CC[C@@H]23)C[C@@H](O)C[C@@H]1O` [MC903, calcipotriol], in experiment [2], the “Gr1+CD11b+ granulocyte infiltration” value is on record as “significantly amplified” and the ear swelling result is recorded as “significantly amplified”.
As for `CC(C)Cn1cnc2c(N)nc3ccccc3c21` [imiquimod], the ear swelling result in experiment [3] (IMQ on skin, CD1a-transgenic mice compared to WT controls) is “extensive”. Further, in experiment [3] (IMQ, CD1a-transgenic mice), the “Gr-1+CD11b+ neutrophils and αβ T cells in the skin, flow cytometry” value was “dramatic increase”; the “cytokine profile of inflammatory T cells” value is “mainly consisted of CD4 T cells producing IL-17 and IL-22”.
For sulfatide, the “binding curves, molecular interaction with CD1a” value in experiment [4] was “sensitive and specific binding curves”.
As for urushiol, the “binding to CD1a (optical density)” value in experiment [5] is listed as “specific binding; also recorded: interacts as a ligand”. In addition, the “ear swelling (ear thickness)” value in experiment [6] (2 days after urushiol challenge, CD1a-transgenic mice compared to WT controls) is “drastically increased”. In addition, in experiment [6] (CD1a-dependent fashion), the “CD4+αβ T cells in urushiol-challenged skin” value was “expanded”. In experiment [6] (CD1a-transgenic mice challenged with urushiol), the “frequency of Th17 cells” value is reported as “drastically increased”. In experiment [6] (setting [7]), the “IFN-γ response of T cells infiltrating the inflamed skin” value was “failed to induce”; the “cytokine profile of T cells responding to challenge” value was “mainly produced the cytokines IL-17 and IL-22”. In addition, the “neutrophil infiltration (Gr-1, CD11b), flow cytometry” value in experiment [6] (urushiol-challenged ears, CD1a-transgenic mice vs WT) is on record as “striking increase”.
